Results: patent US8389564B2, “Proteasome inhibitors” (priority 2008, dated 2013)
Like-named read-outs stand apart in the source and are kept apart here.

How the values were obtained:
[1] = target: T1, caspase-like activity of the 20S proteasome (Oryctolagus cuniculus, UniProt A0A5F9DQW2); test: In vitro purified rabbit muscle 20S proteasome assay, caspase-like (C-L) activity, Z-LLEAMC substrate; format: biochemical
T1 construct: In Vitro Purified Rabbit Muscle 20S Proteasome Activity Assays; from tissue; host or cells: rabbit muscle
T1 sequence (A0A5F9DQW2 1-212): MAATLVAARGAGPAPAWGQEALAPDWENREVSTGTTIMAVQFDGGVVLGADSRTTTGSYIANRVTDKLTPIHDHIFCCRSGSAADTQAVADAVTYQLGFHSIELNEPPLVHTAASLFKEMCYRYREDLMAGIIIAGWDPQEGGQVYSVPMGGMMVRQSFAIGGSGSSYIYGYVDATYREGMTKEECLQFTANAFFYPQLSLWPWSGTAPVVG
Procedure: (§1) Serial diluted test compounds were added in duplicate to 1 μg/ml purified rabbit 20S proteasome in assay buffer containing 20 mM HEPES, pH7.3, 0.5 mM EDTA, 0.05% Triton X-100 and 0.035% SDS and pre-incubated for 5 min at 37° C. Reactions were initiated by the addition of the Suc-LLVY-AMC peptide substrate at a final concentration of 20 μM. Fluorescence of the cleaved peptide substrate was measured at λex=390 nm and λem=460 nm using a Fluoroskan Ascent 96-well microplate reader (Thermo Electron, Waltham, Mass.). […] The caspase-like activity of the 20S proteasome was determined as described above except that Z-LLEAMC was used as the peptide substrate. For the evaluation of the trypsin-like activity, the SDS was omitted from the assay buffer and Boc-LRR-AMC was used as the peptide substrate.

[2] = target: T2, chymotrypsin-like activity of the 20S proteasome (Oryctolagus cuniculus, UniProt G1T4Q9); test: In vitro purified rabbit muscle 20S proteasome assay, chymotrypsin-like (CT-L) activity, Suc-LLVY-AMC substrate; format: biochemical
T2 construct: In Vitro Purified Rabbit Muscle 20S Proteasome Activity Assays; from tissue; host or cells: rabbit muscle
T2 sequence (G1T4Q9 1-263): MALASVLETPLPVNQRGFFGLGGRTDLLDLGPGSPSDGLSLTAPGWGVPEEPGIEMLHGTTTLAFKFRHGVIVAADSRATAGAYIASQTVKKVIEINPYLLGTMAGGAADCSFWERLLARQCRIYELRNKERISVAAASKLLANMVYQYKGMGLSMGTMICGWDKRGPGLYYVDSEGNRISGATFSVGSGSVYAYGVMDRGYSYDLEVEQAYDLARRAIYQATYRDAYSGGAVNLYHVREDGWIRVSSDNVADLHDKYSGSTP
Procedure: as §1

RPMI 8226 = test: Cytotoxicity in RPMI 8226; conditions: Homo sapiens, RPMI-8226, read-out: Cytotoxicity in RPMI 8226 Average IC50 ± SD (nM)
Procedure: B16-F10 (ATCC; CRL-6475), DU 145 (ATCC; HTB-81), HEK293 (ATCC; CRL-1573), HT-29 (ATCC; HTB-38), LoVo (ATCC; CCL-229), MDA-MB-231 (ATCC; HTB-26), MIA PaCa-2 (ATCC; CRL-1420), NCI-H292 (ATCC; CRL-1848), OVCAR-3 (ATCC, HTB-161), PANC-1 (ATCC; CRL-1469), PC-3 (ATCC; CRL-1435), RPMI 8226 (ATCC; CCL-155) and U266 (ATCC; TIB-196) are maintained in appropriate culture media. The cells are cultured in an incubator at 37° C. in 5% CO2 and 95% humidified air.
20 mM stock solutions of the test compound are prepared in 100% DMSO, aliquoted and stored at −80° C. […] The plates are returned to the incubator for 48 hours. The final concentration of DMSO is 0.25% in all samples.
Following 48 hours of drug exposure, 10 μl of 0.2 mg/ml resazurin (obtained from Sigma-Aldrich Chemical Co.) in Mg^2+, Ca^2+ free phosphate buffered saline are added to each well and the plates are returned to the incubator for 3-6 hours. Since living cells metabolize Resazurin, the fluorescence of the reduction product of Resazurin is measured using a Fusion microplate fluorometer (Packard Bioscience) with λex=535 nm and λem=590 nm filters. Resazurin dye in medium without cells is used to determine the background, which was subtracted from the data for all experimental wells.

[3] = target: T3, trypsin-like activity of the 20S proteasome (Oryctolagus cuniculus, UniProt G1SWK8); test: In vitro purified rabbit muscle 20S proteasome assay, trypsin-like (T-L) activity, Boc-LRR-AMC substrate; format: biochemical
T3 construct: In Vitro Purified Rabbit Muscle 20S Proteasome Activity Assays; from tissue; host or cells: rabbit muscle
T3 sequence (G1SWK8 1-271): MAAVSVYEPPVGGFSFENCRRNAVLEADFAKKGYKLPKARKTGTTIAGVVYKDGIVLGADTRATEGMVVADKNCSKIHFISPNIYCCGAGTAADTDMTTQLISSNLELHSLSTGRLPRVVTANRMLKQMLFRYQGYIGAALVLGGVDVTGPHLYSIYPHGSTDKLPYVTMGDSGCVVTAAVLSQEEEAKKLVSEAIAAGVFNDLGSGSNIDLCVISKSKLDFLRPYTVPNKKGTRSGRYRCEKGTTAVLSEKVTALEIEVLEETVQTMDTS
Procedure: as §1

[4] = rabbit 20S proteasome, mean ± SD of 3 or more experiments, read-out: C-L IC50
[5] = rabbit 20S proteasome, mean ± SD of 3 or more experiments, read-out: CT-L IC50
[6] = rabbit 20S proteasome, mean ± SD of 3 or more experiments, read-out: T-L IC50

SMILES	IC50 [1, 4] [nM]	IC50 [2, 5] [nM]	IC50 (RPMI 8226) [nM]	IC50 [3, 6] [nM]	IC50 [1] [nM]	IC50 [2] [nM]	IC50 [3] [nM]
C[C@@]12OC(=O)[C@]1([C@@H](O)[C@@H]1C=CCCC1)NC(=O)[C@@H]2CCO [CH2CH2OH]	1200 ± 57	14 ± 1.5	38000	1200 ± 150	–	–	–
CN(C)c1cccc2c(S(=O)(=O)OCC[C@H]3C(=O)N[C@@]4([C@@H](O)[C@@H]5C=CCCC5)C(=O)O[C@@]34C)cccc12 [CH2CH2ODs]	–	–	30 ± 6	–	90 ± 11	3 ± 0.5	12 ± 2.3
CC(C)(C)c1ccc(S(=O)(=O)OCC[C@H]2C(=O)N[C@@]3([C@@H](O)[C@@H]4C=CCCC4)C(=O)O[C@@]23C)cc1	–	–	94 ± 18	–	180 ± 4	3.2 ± 0.4	31 ± 1
C[C@@]12OC(=O)[C@]1([C@@H](O)[C@@H]1C=CCCC1)NC(=O)[C@@H]2CCOC(=O)c1ccc(-c2ccccc2)cc1	–	–	290 ± 108	–	160 ± 9	9 ± 2	52 ± 5
C[C@@]12OC(=O)[C@]1([C@@H](O)[C@@H]1C=CCCC1)NC(=O)[C@@H]2CCBr [CH2CH2Br]	290 ± 60	2.6 ± 0.4	7.8 ± 1.4	14 ± 2	–	–	–
CC[C@H]1C(=O)N[C@@]2([C@@H](O)[C@@H]3C=CCCC3)C(=O)O[C@@]12C [CH2CH3]	–	–	6300	610 ± 35	–	–	–
CC(=O)OCC[C@H]1C(=O)N[C@@]2([C@@H](O)[C@@H]3C=CCCC3)C(=O)O[C@@]12C [CH2CH2OC(O)CH3]	–	–	20000	–	971 ± 56	9.1 ± 0.3	745 ± 40
C[C@@]12OC(=O)[C@]1([C@@H](O)[C@@H]1C=CCCC1)NC(=O)[C@@H]2CCI [CH2CH2I]	410 ± 230	2.8 ± 0.5	6.9 ± 0.9	13 ± 3	–	–	–
Cc1ccc(S(=O)(=O)OCC[C@H]2C(=O)N[C@@]3([C@@H](O)[C@@H]4C=CCCC4)C(=O)O[C@@]23C)cc1 [CH2CH2OTs]	–	–	27 ± 8.5	–	127 ± 5	2.5 ± 0.4	9.9 ± 0.2
C[C@@]12OC(=O)[C@]1([C@@H](O)[C@@H]1C=CCCC1)NC(=O)[C@@H]2CCOS(=O)(=O)c1ccc(Oc2ccccc2)cc1	–	–	78 ± 25	–	85 ± 9	3.2 ± 0.2	14 ± 1
C[C@H]1C(=O)N[C@@]2([C@@H](O)[C@@H]3C=CCCC3)C(=O)O[C@@]12C [CH3]	460 ± 49	7.5 ± 0.6	6300	370 ± 44	–	–	–
C[C@@]12OC(=O)[C@]1([C@@H](O)[C@@H]1C=CCCC1)NC(=O)[C@@H]2CCCl [CH2CH2Cl, Salinosporamide A, reference compound]	–	–	9.8 ± 3	–	–	–	–
C[C@@]12OC(=O)[C@]1([C@@H](O)[C@@H]1C=CCCC1)NC(=O)[C@@H]2CCOS(=O)(=O)c1ccc(-c2ccccc2)cc1	–	–	43 ± 12	–	101 ± 11	3.8 ± 0.1	15 ± 1
C[C@@]12OC(=O)[C@]1([C@@H](O)[C@@H]1C=CCCC1)NC(=O)[C@@H]2CCF [CH2CH2F]	781 ± 47	10 ± 0.7	875 ± 430	525 ± 15	–	–	–
CCC[C@H]1C(=O)N[C@@]2([C@@H](O)[C@@H]3C=CCCC3)C(=O)O[C@@]12C [CH2CH2CH3]	1200 ± 200	24 ± 5	6300	1100 ± 200	–	–	–
C[C@@]12OC(=O)[C@]1([C@@H](O)[C@@H]1C=CCCC1)NC(=O)[C@@H]2CCOS(C)(=O)=O [CH2CH2OMs]	–	–	144 ± 46	–	873 ± 32	4.3 ± 0.8	65 ± 8
